Results: ChEMBL document CHEMBL4507291 (2021)

Columns and labels:
[1] = target: Substance-P receptor (Homo sapiens) (UniProt P25103); test: Inhibition of Tachykinin NK1 at 10 µM in the Eurofins-Panlabs radioligand binding assay (Eurofins_assay_255520); design: ligand concentration 0.8 nM; details: Compound concentration 10.0 uM
[2] = target: C-X-C chemokine receptor type 2 (Homo sapiens) (UniProt P25025); test: Inhibition of Chemokine CXCR2 (IL-8RB) at 10 µM in the Eurofins-Panlabs radioligand binding assay (Eurofins_assay_244500); details: Compound concentration 10.0 uM
Chain of C-X-C chemokine receptor type 2 (Homo sapiens) (P25025 whole entry): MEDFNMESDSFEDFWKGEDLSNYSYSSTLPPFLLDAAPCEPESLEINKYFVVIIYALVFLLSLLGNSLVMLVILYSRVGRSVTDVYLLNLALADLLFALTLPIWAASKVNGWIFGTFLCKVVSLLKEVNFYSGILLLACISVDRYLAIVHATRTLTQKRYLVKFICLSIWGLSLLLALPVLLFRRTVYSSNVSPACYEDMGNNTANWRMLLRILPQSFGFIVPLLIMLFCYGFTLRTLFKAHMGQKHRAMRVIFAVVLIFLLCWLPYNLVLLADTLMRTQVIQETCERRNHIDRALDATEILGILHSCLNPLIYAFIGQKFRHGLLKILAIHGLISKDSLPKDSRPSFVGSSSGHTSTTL

[3] = target: Cyclin-dependent kinase 2/cyclin A (Homo sapiens) (UniProt P24941+P20248+P78396); test: CDK2/cyclin A Kinase screen; assay type: protein-complex assay; details: Compound concentration 1.0 uM
[4] = target: Casein kinase I isoform gamma-3 (Homo sapiens) (UniProt Q9Y6M4); test: CSNK1G3 (CK1 gamma 3) Kinase screen; details: Compound concentration 1.0 uM
[5] = target: Death-associated protein kinase 3 (Homo sapiens) (UniProt O43293); test: DAPK3 (ZIPK) Kinase screen; details: Compound concentration 1.0 uM
[6] = target: T1, Myotonin-protein kinase (Homo sapiens) (UniProt Q09013); test: DMPK Kinase screen; details: Compound concentration 1.0 uM
T1 sequence (whole entry): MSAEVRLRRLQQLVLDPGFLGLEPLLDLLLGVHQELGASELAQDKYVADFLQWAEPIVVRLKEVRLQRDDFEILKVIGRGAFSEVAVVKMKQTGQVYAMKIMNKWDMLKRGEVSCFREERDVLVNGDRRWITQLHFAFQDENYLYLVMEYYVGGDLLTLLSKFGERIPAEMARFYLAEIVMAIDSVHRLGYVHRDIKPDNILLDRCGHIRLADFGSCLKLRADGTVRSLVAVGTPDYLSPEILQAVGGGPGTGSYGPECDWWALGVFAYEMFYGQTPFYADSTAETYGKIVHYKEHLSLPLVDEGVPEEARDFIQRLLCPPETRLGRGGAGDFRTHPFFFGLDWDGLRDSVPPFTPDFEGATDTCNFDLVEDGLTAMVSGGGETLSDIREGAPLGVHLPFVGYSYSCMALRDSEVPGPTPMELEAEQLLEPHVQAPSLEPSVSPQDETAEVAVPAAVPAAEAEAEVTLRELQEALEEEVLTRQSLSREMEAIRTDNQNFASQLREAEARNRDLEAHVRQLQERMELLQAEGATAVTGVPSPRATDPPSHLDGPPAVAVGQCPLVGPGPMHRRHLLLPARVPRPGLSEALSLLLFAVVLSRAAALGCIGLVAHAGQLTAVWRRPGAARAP

[7] = target: Fibroblast growth factor receptor 1 (Homo sapiens) (UniProt P11362); test: FGFR1 Kinase screen; details: Compound concentration 1.0 uM
Chain of Fibroblast growth factor receptor 1 (Homo sapiens) (P11362 22-822 limits assumed): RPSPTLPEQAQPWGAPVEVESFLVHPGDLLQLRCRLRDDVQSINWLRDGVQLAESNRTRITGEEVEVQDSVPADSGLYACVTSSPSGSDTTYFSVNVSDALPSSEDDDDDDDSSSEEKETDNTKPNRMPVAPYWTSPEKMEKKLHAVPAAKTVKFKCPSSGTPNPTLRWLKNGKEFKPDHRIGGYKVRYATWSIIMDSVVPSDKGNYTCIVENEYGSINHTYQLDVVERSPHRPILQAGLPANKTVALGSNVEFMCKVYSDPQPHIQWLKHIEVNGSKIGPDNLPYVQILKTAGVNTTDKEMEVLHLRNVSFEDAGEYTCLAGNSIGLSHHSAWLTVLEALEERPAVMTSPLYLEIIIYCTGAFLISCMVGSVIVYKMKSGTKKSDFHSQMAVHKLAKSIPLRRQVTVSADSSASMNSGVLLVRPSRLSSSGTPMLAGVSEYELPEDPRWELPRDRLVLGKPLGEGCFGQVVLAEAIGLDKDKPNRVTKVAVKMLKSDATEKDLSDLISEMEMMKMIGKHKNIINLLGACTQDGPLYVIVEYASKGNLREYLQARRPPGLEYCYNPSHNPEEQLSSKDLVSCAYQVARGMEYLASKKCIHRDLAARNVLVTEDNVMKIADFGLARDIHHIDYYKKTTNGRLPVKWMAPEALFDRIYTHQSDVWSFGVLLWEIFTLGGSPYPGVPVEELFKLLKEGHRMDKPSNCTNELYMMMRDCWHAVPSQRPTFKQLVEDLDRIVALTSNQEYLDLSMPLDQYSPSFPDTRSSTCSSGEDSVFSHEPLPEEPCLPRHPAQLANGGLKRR

[8] = target: T2, Mitogen-activated protein kinase kinase kinase 5 (Homo sapiens) (UniProt Q99683); test: MAP3K5 (ASK1) Kinase screen; details: Compound concentration 1.0 uM
T2 sequence (whole entry): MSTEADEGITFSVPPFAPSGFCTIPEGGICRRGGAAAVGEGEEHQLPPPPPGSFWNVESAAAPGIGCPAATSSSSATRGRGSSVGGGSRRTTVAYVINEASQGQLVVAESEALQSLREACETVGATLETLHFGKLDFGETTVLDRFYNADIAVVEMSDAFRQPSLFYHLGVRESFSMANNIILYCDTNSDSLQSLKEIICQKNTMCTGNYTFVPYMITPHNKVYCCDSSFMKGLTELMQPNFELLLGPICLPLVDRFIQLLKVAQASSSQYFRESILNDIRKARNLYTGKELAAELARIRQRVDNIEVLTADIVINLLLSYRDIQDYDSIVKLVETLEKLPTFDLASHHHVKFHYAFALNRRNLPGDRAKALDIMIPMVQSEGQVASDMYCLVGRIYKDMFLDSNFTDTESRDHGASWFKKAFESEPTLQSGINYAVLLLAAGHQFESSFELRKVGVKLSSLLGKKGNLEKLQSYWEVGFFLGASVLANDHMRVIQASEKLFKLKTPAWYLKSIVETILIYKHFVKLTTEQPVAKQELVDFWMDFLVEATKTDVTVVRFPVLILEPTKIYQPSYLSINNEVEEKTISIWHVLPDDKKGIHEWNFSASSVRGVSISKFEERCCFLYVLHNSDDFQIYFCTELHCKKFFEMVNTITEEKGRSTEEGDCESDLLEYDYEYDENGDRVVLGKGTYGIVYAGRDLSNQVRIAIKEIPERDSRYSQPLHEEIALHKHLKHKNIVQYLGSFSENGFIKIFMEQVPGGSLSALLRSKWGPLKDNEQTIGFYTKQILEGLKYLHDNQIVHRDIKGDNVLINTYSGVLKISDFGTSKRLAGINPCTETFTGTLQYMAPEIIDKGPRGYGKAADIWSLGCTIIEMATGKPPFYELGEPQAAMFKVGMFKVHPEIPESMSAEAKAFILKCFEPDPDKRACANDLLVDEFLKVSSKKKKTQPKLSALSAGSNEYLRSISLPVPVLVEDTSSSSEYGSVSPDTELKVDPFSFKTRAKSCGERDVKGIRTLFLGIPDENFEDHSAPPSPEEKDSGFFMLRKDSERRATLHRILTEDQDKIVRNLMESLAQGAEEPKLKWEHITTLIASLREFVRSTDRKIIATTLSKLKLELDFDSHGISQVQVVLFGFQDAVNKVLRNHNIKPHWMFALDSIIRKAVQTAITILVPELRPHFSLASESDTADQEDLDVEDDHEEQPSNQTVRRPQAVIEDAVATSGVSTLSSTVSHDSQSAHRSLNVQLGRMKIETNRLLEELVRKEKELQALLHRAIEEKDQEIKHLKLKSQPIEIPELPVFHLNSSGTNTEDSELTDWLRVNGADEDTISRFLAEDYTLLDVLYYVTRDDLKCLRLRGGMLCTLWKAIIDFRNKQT

[9] = target: Mitogen-activated protein kinase kinase kinase 9 (Homo sapiens) (UniProt P80192); test: MAP3K9 (MLK1) Kinase screen; details: Compound concentration 1.0 uM
[10] = target: Serine/threonine-protein kinase PAK 4 (Homo sapiens) (UniProt O96013); test: PAK4 Kinase screen; details: Compound concentration 1.0 uM
[11] = tested on: Platelet-derived growth factor receptor alpha (Homo sapiens), P16234 [T674I]; test: PDGFRA T674I Kinase screen; details: Compound concentration 1.0 uM
Chain of Platelet-derived growth factor receptor alpha (Homo sapiens), P16234 [T674I] (P16234 whole entry T674I): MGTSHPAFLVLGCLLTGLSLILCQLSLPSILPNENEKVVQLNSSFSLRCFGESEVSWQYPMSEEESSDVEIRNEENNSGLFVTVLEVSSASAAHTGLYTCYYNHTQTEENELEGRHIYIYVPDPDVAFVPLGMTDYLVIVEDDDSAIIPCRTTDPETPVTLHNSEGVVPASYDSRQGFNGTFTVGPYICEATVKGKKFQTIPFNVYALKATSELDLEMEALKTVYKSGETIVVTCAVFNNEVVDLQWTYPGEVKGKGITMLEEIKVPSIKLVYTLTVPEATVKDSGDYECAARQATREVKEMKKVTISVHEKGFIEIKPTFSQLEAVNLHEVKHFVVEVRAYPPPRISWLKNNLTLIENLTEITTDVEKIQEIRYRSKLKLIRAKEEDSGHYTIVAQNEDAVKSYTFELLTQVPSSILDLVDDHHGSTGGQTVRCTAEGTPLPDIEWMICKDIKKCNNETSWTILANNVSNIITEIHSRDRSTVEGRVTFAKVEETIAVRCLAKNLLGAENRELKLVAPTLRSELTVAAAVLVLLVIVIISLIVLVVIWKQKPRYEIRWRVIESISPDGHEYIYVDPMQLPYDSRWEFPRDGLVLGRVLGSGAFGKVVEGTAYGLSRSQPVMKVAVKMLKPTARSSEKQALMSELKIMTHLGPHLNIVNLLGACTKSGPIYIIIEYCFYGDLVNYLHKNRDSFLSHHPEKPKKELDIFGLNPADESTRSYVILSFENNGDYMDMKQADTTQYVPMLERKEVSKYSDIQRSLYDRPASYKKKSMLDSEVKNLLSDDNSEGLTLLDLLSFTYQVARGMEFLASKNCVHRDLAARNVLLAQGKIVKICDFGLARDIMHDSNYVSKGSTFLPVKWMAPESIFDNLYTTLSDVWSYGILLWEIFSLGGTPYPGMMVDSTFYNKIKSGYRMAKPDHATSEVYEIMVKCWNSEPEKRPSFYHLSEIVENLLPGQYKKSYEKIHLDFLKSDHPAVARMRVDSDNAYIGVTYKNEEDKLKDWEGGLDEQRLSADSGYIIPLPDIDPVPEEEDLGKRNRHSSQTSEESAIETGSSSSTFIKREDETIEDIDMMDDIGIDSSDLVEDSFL

[12] = PRKCB2 (PKC beta II) Kinase screen; details: Compound concentration 1.0 uM
[13] = tested on: Proto-oncogene tyrosine-protein kinase receptor Ret (Homo sapiens), P07949 [V804L]; test: RET V804L Kinase screen; details: Compound concentration 1.0 uM
Chain of Proto-oncogene tyrosine-protein kinase receptor Ret (Homo sapiens), P07949 [V804L] (P07949 whole entry V804L): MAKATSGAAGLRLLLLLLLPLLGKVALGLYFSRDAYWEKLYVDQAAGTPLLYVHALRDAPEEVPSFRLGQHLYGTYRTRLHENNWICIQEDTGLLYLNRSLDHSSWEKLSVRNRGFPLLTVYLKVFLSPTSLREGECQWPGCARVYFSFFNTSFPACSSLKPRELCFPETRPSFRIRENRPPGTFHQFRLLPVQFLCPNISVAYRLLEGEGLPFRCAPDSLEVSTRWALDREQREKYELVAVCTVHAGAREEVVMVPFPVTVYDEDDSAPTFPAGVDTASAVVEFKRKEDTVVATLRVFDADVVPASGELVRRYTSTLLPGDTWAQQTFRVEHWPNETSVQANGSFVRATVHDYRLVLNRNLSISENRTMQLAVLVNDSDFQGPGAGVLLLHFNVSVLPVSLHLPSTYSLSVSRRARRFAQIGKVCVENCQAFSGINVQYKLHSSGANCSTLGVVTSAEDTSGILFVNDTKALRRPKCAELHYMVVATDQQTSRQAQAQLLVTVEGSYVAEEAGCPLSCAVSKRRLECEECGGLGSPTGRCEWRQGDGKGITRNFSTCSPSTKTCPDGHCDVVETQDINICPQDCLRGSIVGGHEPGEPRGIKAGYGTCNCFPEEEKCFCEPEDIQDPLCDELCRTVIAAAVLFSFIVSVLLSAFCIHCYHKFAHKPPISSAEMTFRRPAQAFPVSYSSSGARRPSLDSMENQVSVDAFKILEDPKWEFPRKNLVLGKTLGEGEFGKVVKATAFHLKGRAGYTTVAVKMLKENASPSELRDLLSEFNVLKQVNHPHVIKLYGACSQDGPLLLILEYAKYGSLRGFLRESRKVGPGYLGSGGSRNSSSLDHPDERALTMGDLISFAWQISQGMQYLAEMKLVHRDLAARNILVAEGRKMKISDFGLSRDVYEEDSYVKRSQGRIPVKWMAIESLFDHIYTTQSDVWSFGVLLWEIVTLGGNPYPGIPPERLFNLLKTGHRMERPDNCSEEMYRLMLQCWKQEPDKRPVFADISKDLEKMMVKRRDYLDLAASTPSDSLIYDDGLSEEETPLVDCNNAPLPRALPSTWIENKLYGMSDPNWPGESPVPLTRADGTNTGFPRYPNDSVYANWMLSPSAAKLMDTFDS

[14] = target: Vasopressin V1b receptor (Homo sapiens) (UniProt P47901); test: Inhibition of Vasopressin V1B at 10 µM in the Eurofins-Panlabs radioligand binding assay (Eurofins_assay_287560); design: ligand concentration 1 nM; details: Compound concentration 10.0 uM
Chain of Vasopressin V1b receptor (Homo sapiens) (P47901 whole entry): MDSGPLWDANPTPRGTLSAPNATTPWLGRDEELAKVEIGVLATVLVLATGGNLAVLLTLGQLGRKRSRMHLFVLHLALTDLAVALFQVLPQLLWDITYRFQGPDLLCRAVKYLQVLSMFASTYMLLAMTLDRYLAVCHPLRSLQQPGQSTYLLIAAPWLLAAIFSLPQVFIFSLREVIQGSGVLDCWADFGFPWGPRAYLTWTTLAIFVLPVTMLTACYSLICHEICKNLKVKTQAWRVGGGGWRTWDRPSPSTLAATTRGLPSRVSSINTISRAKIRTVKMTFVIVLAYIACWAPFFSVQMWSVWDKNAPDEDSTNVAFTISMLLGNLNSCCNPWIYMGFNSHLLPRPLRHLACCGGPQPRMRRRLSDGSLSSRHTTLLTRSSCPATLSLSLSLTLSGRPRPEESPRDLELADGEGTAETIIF

[15] = target: GABA-A receptor; anion channel (Rattus norvegicus) (UniProt O09028+P15431+P18506+P18508+P19969+P20236+P23574+P23576+P28471+P28473+P30191+P62813+P63079+P63138+Q91ZM7+Q9ES14); details: Compound concentration 10.0 uM
[16] = target: Glutamate receptor 2 (Homo sapiens) (UniProt P42262); details: Rattus norvegicus; Compound concentration 10.0 uM
Chain of Glutamate receptor 2 (Homo sapiens) (P42262 whole entry): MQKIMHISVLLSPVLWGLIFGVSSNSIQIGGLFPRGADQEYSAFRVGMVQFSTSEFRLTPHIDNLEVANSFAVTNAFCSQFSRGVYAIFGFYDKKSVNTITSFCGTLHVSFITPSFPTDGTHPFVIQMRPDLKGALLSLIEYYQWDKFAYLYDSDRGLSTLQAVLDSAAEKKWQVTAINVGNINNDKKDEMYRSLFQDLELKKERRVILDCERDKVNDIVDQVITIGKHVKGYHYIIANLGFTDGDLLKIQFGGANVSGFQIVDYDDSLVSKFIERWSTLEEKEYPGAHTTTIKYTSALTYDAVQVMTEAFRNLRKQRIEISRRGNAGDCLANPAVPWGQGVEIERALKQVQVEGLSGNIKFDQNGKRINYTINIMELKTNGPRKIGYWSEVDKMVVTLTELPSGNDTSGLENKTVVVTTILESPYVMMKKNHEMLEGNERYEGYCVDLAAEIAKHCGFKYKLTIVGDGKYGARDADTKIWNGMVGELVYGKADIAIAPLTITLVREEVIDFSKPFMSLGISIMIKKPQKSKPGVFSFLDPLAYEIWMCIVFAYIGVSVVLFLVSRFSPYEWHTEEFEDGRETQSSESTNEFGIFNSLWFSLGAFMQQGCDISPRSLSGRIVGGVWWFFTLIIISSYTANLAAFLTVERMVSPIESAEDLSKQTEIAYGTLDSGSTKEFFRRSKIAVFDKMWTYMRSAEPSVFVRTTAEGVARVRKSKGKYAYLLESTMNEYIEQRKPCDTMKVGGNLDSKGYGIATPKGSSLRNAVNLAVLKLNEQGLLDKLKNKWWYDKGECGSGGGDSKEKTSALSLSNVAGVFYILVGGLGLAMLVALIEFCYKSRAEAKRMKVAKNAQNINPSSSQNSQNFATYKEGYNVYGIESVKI

Measured: inhibition

Chain of Substance-P receptor (Homo sapiens) (P25103 whole entry): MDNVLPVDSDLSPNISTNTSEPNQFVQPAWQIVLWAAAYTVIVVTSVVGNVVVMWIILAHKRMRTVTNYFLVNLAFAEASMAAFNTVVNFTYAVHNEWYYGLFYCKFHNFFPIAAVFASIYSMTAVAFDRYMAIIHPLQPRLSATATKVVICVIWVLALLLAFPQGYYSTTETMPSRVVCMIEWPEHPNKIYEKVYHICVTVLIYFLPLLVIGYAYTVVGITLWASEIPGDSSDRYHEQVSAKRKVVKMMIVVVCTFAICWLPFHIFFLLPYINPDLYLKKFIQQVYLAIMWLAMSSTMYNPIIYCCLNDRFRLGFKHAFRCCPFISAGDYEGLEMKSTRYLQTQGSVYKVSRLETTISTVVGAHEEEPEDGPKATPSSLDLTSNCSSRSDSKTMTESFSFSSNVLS

C[C@@H]1CN(c2cc(-c3n[nH]c4ccc(OC5(C)CC5)cc34)ncn2)C[C@H](C)O1 [MLi-2]
inactive: [1] 22% | [2] 1% | [3] 1.13% | [4] 2.15% | [5] 5.27% | [6] 5.71% | [7] 3.88% | [8] 71.9% | [9] 27.3% | [10] -7.34% | [11] 23.5% | [12] 10.4% | [13] 5.69% | [14] 1% | [15] 35% | [16] -2%
